Values joined by “and” are separate entries in the source; they are usually repeats but may differ in a detail not shown here. Equal entries are not always repeated. Where a SMILES comes first, the peptide text is derived from it. [ ]: non-standard residue; d: D form.
Tested on: pituitary
Assay: In vitro growth hormone release study (incubated rat pituitaries, GH radioimmunoassay)
Format: cell-based
Settings: pituitaries of 20 day old female rats, ΔGH (I3-P2),(I4-P2), ± SEM
Protocol: Female rats of the CD-1 strain were housed in a constant temperature room at 24° C. with 14 hours light and 10 hours darkness. The rats were fed Purina brand rat chow ab libitum.
All studies were started between 0800 and 1000 hours.
Pituitaries were removed from 20 day old female rats. Two pituitaries were incubated at 36° C. in 1 ml of lactated Ringer's solution in 10 ml polytetrafluoroethylene beakers in a Dubnoff Shaker (90 cycles/min.). The pituitaries were incubated a total of 4 hours (P1, P2, I3, and I4). After two successive one hour preincubation periods (P1, P2), the peptide was added to the incubation medium hourly for 2 hours (I3, I4).
This in vitro study was performed in triplicate and a standard radioimmunoassay of growth hormone present in the incubation medium was performed in duplicate. The hormonal activity was calculated as the difference (Δ) of growth hormone (GH) levels between I3, I4 and P2, i.e., (I3 -P2) and (I4 -P2). P values were calculated by Students' t test using six growth hormone values for each value recorded.
The growth hormone radioimmunoassay reagents were distributed by the National Institute of Arthritis and […] (NIAMDD) program. The growth hormone values were calculated in terms of nanograms (ng) of a rat standard with a growth hormone potency of 0.61 units/mg.

## CSCC[C@H](NC(=O)[C@H](CCCCN)NC(=O)[C@@H](Cc1ccccc1)NC(=O)[C@@H](Cc1ccccc1)NC(=O)[C@@H](N)Cc1c[nH]c2ccccc12)C(N)=O [H2 N--Trp--D-Phe--D-Phe--Lys--Met--CONH2, H2 N-Trp-D-Phe-D-Phe-Lys-Met-CONH2] (H-W[dF][dF]KM-NH2)
0.3μg peptide
  IN VITRO GROWTH HORMONE RELEASE: 24 ± 24 ngΔGH/ml incubation medium
10μg peptide
  IN VITRO GROWTH HORMONE RELEASE: 853 ± 138 ngΔGH/ml incubation medium and 440 ± 180 ngΔGH/ml incubation medium

— US4228155A, “Synthetic peptides having pituitary growth hormone releasing activity” (Beckman Instruments, Inc., priority 1979, dated 1980)
